Where a name gives a salt, the structure may show the parent alone.
What was measured:
[1] = DVS (dynamic vapor sorption) experiment on the amorphous phosphate salt; type: physicochemical
Description: The amorphous phosphate salt of I crystallized during a DVS (dynamic vapor sorption) experiment at a relative atmospheric humidity of 45% r.h.

[2] = Storage of the amorphous phosphate salt at 75% r.h.; type: physicochemical; settings: crystallized after 8 days
Description: The amorphous phosphate salt crystallized after 8 days on storage at a relative atmospheric humidity of 75% r.h. and formed form A.

For `COc1cccc([C@@]2(O)C[C@H](O)CC[C@@H]2CN(C)C)c1` (racemic) [form A, (1RS,3RS,6RS)-6-dimethylaminomethyl-1-(3-methoxyphenyl)-cyclohexane-1,3-diol], the “Stability of the hydrate formed during the desorption” value ([1]; desorption) was “remained stable during the desorption”.

For `COc1cccc([C@@]2(O)C[C@H](O)CC[C@@H]2CN(C)C)c1` (racemic) [amorphous phosphate salt of I, (1RS,3RS,6RS)-6-dimethylaminomethyl-1-(3-methoxyphenyl)-cyclohexane-1,3-diol], the “Relative atmospheric humidity at which the amorphous salt crystallized” value [1] was 45 % r.h and the “Form formed on storage” value [2] was “form A”.

Source: patent publication US20060211887A1, “Phosphate salts of 6-dimethylaminomethyl-1-(3-methoxyphenyl)-1,3-dihydroxy-cyclohexane compounds” (priority 2005, published 2006)
